Data set [1] concerns the target T1, folate receptors (FRs) on KB cells (Homo sapiens, UniProt P15328).
T1 construct: FR-positive KB cells were heavily seeded into 24-well cell culture plates; endogenous in cells; host or cells: KB cells
Description: Relative Affinity Assay (displacement of 3H-folic acid). It counts as binding. The following applies: 10% serum/FDRPMI; folic acid set to 1. The protocol: METHOD: Relative Affinity Assay. The affinity for folate receptors (FRs) relative to folate was determined according to a previously described method (Westerhof, G. R., J. H. Schornagel, et al. (1995) Mol. Pharm. 48: 459-471) with slight modification. Briefly, FR-positive KB cells were heavily seeded into 24-well cell culture plates and allowed to adhere to the plastic for 18 h. Spent incubation media was replaced in designated wells with folate-free RPMI (FFRPMI) supplemented with 100 nM ^3H-folic acid in the absence and presence of increasing concentrations of test article or folic acid. Cells were incubated for 60 min at 37° C. and then rinsed 3 times with PBS, pH 7.4. Five hundred microliters of 1% SDS in PBS, pH 7.4, were added per well. Cell lysates were then collected and added to individual vials containing 5 mL of scintillation cocktail, and then counted for radioactivity. Negative control tubes contained only the ^3H-folic acid in FFRPMI (no competitor). Positive control tubes contained a final concentration of 1 mM folic acid, and CPMs measured in these samples (representing non-specific binding of label) were subtracted from all samples.

The nature of data set [2]: Serum binding (30K NMWL filtration/HPLC-UV), mouse serum. The note with it: 50 μM test article concentration in serum, n = 3, read-out: Mouse Serum % Bound (converted). Type of data set: in vitro ADME. As to the method:
(§1) METHOD: Serum binding against different species. Compounds are tested with 30K NMWL, subjected to Microcon filtration (10,000 g for 30 minutes), and compounds are detected by HPLC. […] There was two times the amount of free EC0531 in serum compared to EC0305.

The subject of data set [3] is folate receptor-positive KB cells. Description: Inhibition of Cellular DNA Synthesis (3H-thymidine incorporation cytotoxicity assay). The note with it: 2 hour pulse and 72 hour chase. It counts as cell-based. The protocol:
METHOD: Inhibition of Cellular DNA Synthesis. The compounds described herein were evaluated using an in vitro cytotoxicity assay that predicts the ability of the drug to inhibit the growth of folate receptor-positive KB cells. The compounds were comprised of folate linked to a respective chemotherapeutic drug, as prepared according to the protocols described herein. The KB cells were exposed for up to 7 h at 37° C. to the indicated concentrations of folate-drug conjugate in the absence or presence of at least a 100-fold excess of folic acid. The cells were then rinsed once with fresh culture medium and incubated in fresh culture medium for 72 hours at 37° C. Cell viability was assessed using a ^3H-thymidine incorporation assay. For compounds described herein, dose-dependent cytotoxicity was generally measurable, and in most cases, the IC50 values (concentration of drug conjugate required to reduce ^3H-thymidine incorporation into newly synthesized DNA by 50%) were in the low nanomolar range.
METHOD: In vitro test against the various cancer cell lines. Cells are heavily seeded in 24-well Falcon plates and allowed to form nearly confluent monolayers overnight. Thirty minutes prior to the addition of the test compound, spent medium is aspirated from all wells and replaced with fresh folate-deficient RPMI medium (FFRPMI). A subset of wells are designated to receive media containing 100 μM folic acid. The cells in the designated wells are used to determine the targeting specificity. […] Following one rinse with 1 mL of fresh FFRPMI containing 10% heat-inactivated fetal calf serum, each well receives 1 mL of medium containing increasing concentrations of test compound (4 wells per sample) in the presence or absence of 100 μM free folic acid as indicated. Treated cells are pulsed for 2 h at 37° C., rinsed 4 times with 0.5 mL of media, and then chased in 1 mL of fresh medium up to 70 h. Spent medium is aspirated from all wells and replaced with fresh medium containing 5 μCi/mL ^3H-thymidine. Following a further 2 h 37° C. incubation, cells are washed 3 times with 0.5 mL of PBS and then treated with 0.5 mL of ice-cold 5% trichloroacetic acid per well. After 15 min, the trichloroacetic acid is aspirated and the cell material solubilized by the addition of 0.5 mL of 0.25 N sodium hydroxide for 15 min. A 450 μL aliquot of each solubilized sample is transferred to a scintillation vial containing 3 mL of Ecolume scintillation cocktail and then counted in a liquid scintillation counter. Final tabulated results are expressed as the percentage of ^3H-thymidine incorporation relative to untreated controls.

A short description of data set [4]: Toxicity as measured by weight loss. Type of data set: in vivo, mice. As to the method: METHOD: Additional In vivo antitumor method. Four to six week-old female nu/nu mice (Charles River, Wilmington, Mass.) were maintained on a standard 12 h light-dark cycle and fed ad libitum with folate-deficient chow (Harlan diet #TD00434, Harlan Teklad, Madison, Wis.) for the duration of the experiment. KB cells (1×10^6 per nu/nu mouse) in 100 μL were injected in the subcutis of the dorsal medial area. Mice were divided into groups of five, and test articles were freshly prepared and injected through the lateral tail vein under sterile conditions in a volume of 200 μL of phosphate-buffered saline (PBS). Intravenous (i.v.) treatments were typically initiated on approximately 9 post-tumor cell implantation when the KB tumors were approximately 100-200 mm^3 in volume. The mice in the control groups received no treatment. Growth of each s.c. tumor was followed by measuring the tumor three times per week during treatment and twice per week thereafter until a volume of 1500 mm^3 was reached. Tumors were measured in two perpendicular directions using Vernier calipers, and their volumes were calculated as 0.5×L×W^2, where L=measurement of longest axis in mm and W=measurement of axis perpendicular to L in mm. As a general measure of toxicity, changes in body weights were determined on the same schedule as tumor volume measurements. Survival of animals was monitored daily. Animals that were moribund (or unable to reach food or water) were euthanized by CO2 asphyxiation. All in vivo studies were performed in accordance with the American Accreditation Association of Laboratory Animal Care guidelines.
METHOD: Toxicity as Measured by Weight Loss. The percentage weight change of the mice was determined in mice (5 mice/group) on selected days post-tumor inoculation (PTI), and graphed.

A short description of data set [5]: Serum binding (30K NMWL filtration/HPLC-UV), human serum. It counts as in vitro ADME. As to the method:
as §1

Another data set relates to subcutaneous KB tumors. Briefly: KB tumor assay, inhibition of tumor growth in mice. Type of data set: in vivo, nu/nu mice. The note with it: FIG. 3A; 0.5, 0.75, 1 μmol/kg; tolerable and highly toxic dose levels. As to the method:
METHOD: Inhibition of Tumor Growth in Mice. Four to seven week-old mice (Balb/c or nu/nu strains) were purchased from Harlan Sprague Dawley, Inc. (Indianapolis, Ind.). Normal rodent chow contains a high concentration of folic acid (6 mg/kg chow); accordingly, mice used were maintained on the folate-free diet (Harlan diet #TD00434) for 1 week before tumor implantation to achieve serum folate concentrations close to the range of normal human serum. For tumor cell inoculation, 1×10^6 M109 cells (Balb/c strain) or 1×10^6 KB cells (nu/nu strain) in 100 μL were injected in the subcutis of the dorsal medial area. Tumors were measured in two perpendicular directions every 2-3 days using a caliper, and their volumes were calculated as 0.5×L×W^2, where L=measurement of longest axis in mm and W=measurement of axis perpendicular to L in mm. […]
METHOD: General KB Tumor Assay. The anti-tumor activity of the compounds described herein, when administered intravenously (i.v.) to tumor-bearing animals, was evaluated in nu/nu mice bearing subcutaneous KB tumors. […] Tumor growth was measured using calipers at 2-day or 3-day intervals in each treatment group. Tumor volumes were calculated using the equation V=a×b^2/2, where “a” is the length of the tumor and “b” is the width expressed in millimeters.
METHOD: Additional In vivo antitumor method. […] Survival of animals was monitored daily. […]

Entries after “also recorded” stand apart in the source; their conditions may differ.

T1 sequence (P15328 25-234): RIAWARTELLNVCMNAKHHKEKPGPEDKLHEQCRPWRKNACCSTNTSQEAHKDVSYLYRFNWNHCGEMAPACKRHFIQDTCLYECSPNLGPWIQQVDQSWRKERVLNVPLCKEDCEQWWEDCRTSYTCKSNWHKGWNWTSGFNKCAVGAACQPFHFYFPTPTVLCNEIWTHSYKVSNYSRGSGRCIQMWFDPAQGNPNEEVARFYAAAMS

On to `Nc1nc2ncc(CNc3ccc(C(=O)N[C@@H](CCC(=O)O)C(=O)O)cc3)nc2c(=O)[nH]1` [folic acid], for which the relative affinity in data set [1] is recorded as 1.
Regarding `CCCC(=O)OCN(C(=O)[C@@H](NC(=O)[C@H]1CCCCN1C)C(C)CC)[C@H](C[C@@H](OC(C)=O)c1nc(C(=O)N[C@@H](Cc2ccc(O)cc2)C[C@H](C)C(=O)NNC(=O)OCCSSC[C@H](NC(=O)[C@H](CCC(=O)NC[C@H](O)[C@@H](O)[C@H](O)[C@H](O)CO)NC(=O)[C@H](CCC(=O)O)NC(=O)[C@H](CCC(=O)NC[C@H](O)[C@@H](O)[C@H](O)[C@H](O)CO)NC(=O)[C@H](CCC(=O)O)NC(=O)[C@H](CCC(=O)NC[C@H](O)[C@@H](O)[C@H](O)[C@H](O)CO)NC(=O)CC[C@H](NC(=O)c2ccc(NCc3cnc4nc(N)[nH]c(=O)c4n3)cc2)C(=O)O)C(=O)O)cs1)C(C)C` (stereo partly shown) [EC0531], the fraction unbound in data set [2] was 0.503. For the same compound, in data set [3], the “cytotoxic activity in the presence of an excess of a folate-fluorescein conjugate” value is on record as “blocked” and the “cytotoxic activity in the presence of an excess of folic acid” value is reported as “blocked”. The “weight loss or major organ tissue degeneration” value in data set [4] (FIG. 4B, 1, 2, 3 μmol/kg TIW two weeks) is given as “apparent absence of weight loss or major organ tissue degeneration”. Besides, the “tolerability (percent weight change)” value in data set [4] (FIG. 6, 3 μmol/kg TIW, female mice) is “well tolerated; also recorded: safe and tolerable”. In addition, the fraction unbound in data set [5] (human, 50 μM test article concentration in serum, n = 3, read-out: Human Serum % Bound (converted)) was 0.38. For the same compound, in data set [5] (serum binding assay), the “amount of free conjugate in serum compared to EC0305” value is listed as “two times”.
Consider `CCCC(=O)OCN(C(=O)[C@@H](NC(=O)[C@H]1CCCCN1C)C(C)CC)[C@H](C[C@@H](OC(C)=O)c1nc(C(=O)N[C@@H](Cc2ccc(O)cc2)C[C@H](C)C(=O)O)cs1)C(C)C` (stereo partly shown) [tubulysin B, reference compound], for which the “toxicity (percent body weight change)” value in data set [4] (mouse, in vivo) is on record as “excessive toxicity”. Moreover, the “responses (animals)” value in the data set on subcutaneous KB tumors is 0/5.

The values above are taken from patent US20130116195A1, “Binding ligand linked drug delivery conjugates of tubulysins” (priority 2009, published 2013).
